According to US9062078B2, “Substituted 7-azabicyles and their use as orexin receptor modulators” (priority 2013, dated 2015):
Where two headings read alike, the source gives them in different places.

Key:
rat orexin 1 receptor = rat orexin 1 receptor (Rattus norvegicus, UniProt P56718); assay: Rat orexin 1 receptor radioligand binding (competitive, [3H]-SB674042, HEK293 cell preparations)
human orexin 2 receptor = human orexin 2 receptor (Homo sapiens (Human), UniProt O43614); assay: Human orexin 2 receptor radioligand binding (competitive, [3H]-EMPA, HEK293 cell preparations)
human orexin 2 receptor, sequence (O43614 whole entry): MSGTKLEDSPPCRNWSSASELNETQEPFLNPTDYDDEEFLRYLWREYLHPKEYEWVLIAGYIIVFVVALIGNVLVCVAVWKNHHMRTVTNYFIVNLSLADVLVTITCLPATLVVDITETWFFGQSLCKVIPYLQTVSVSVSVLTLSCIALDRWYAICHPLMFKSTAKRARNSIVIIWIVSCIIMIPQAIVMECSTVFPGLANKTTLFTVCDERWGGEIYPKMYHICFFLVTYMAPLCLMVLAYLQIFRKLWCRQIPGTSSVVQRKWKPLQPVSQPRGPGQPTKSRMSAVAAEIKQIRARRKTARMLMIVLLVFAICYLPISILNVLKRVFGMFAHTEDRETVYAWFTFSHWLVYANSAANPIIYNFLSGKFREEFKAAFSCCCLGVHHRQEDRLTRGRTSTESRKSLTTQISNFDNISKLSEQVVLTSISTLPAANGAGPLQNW

[1] = human orexin 2 receptor, [3H]-EMPA competition binding, read-out: hOX2 Ki (nm)
[2] = rat orexin 1 receptor, [3H]-SB674042 competition binding, read-out: rOX1 Ki (nm)

SMILES: Cc1ccc(-n2nccn2)c(C(=O)N2C3CCC2C(COc2ccc(C(F)(F)F)cn2)C3)n1 (racemic) [Example 47, (±)-(6-methyl-3-(2H-1,2,3-triazol-2-yl)pyridin-2-yl)(2-(((5-(trifluoromethyl)pyridin-2-yl)oxy)methyl)-7-azabicyclo[2.2.1]heptan-7-yl)methanone]
- Ki (rat orexin 1 receptor; rOX1 Ki (nm)): 460 nM
- Ki (human orexin 2 receptor; [1]): 418 nM

SMILES: CCOc1ccc(C)nc1C(=O)N1C2CCC1C(COc1ccc(C(F)(F)F)cn1)C2 (racemic) [Example 48, (±)-(3-ethoxy-6-methylpyridin-2-yl)(2-(((5-(trifluoromethyl)pyridin-2-yl)oxy)methyl)-7-azabicyclo[2.2.1]heptan-7-yl)methanone]
- Ki (rat orexin 1 receptor; [2]): 3900 nM
- Ki (human orexin 2 receptor; hOX2 Ki (nm)): 4700 nM

SMILES: COc1c(F)cccc1C(=O)N1C2CCC1C(COc1ccc(Br)cn1)C2 (racemic) [Example 50, (±)-(2-(((5-bromopyridin-2-yl)oxy)methyl)-7-azabicyclo[2.2.1]heptan-7-yl)(3-fluoro-2-methoxyphenyl)methanone]
- Ki (rat orexin 1 receptor; [2]): 460 nM
- Ki (human orexin 2 receptor; [1]): 4400 nM

SMILES: CCOc1ccc(C)nc1C(=O)N1C2CCC1C(COc1ccc(Br)cn1)C2 (racemic) [Example 51, (±)-(2-(((5-bromopyridin-2-yl)oxy)methyl)-7-azabicyclo[2.2.1]heptan-7-yl)(3-ethoxy-6-methylpyridin-2-yl)methanone]
- Ki (rat orexin 1 receptor; rOX1 Ki (nm)): 974 nM
- Ki (human orexin 2 receptor; hOX2 Ki (nm)): 1800 nM

SMILES: O=C(c1cccc(F)c1-c1ncccn1)N1C2CCC1C(COc1ccccn1)C2 (racemic) [Example 52, (±)-(3-fluoro-2-(pyrimidin-2-yl)phenyl)(2-((pyridin-2-yloxy)methyl)-7-azabicyclo[2.2.1]heptan-7-yl)methanone]
- Ki (rat orexin 1 receptor; [2]): 350 nM
- Ki (human orexin 2 receptor; hOX2 Ki (nm)): 2300 nM

SMILES: Cc1ccc(-n2nccn2)c(C(=O)N2C3CCC2C(COc2cccnn2)C3)n1 (racemic) [Example 53, (±)-(6-methyl-3-(2H-1,2,3-triazol-2-yl)pyridin-2-yl)(2-((pyridazin-3-yloxy)methyl)-7-azabicyclo[2.2.1]heptan-7-yl)methanone]
- Ki (rat orexin 1 receptor; [2]): 2200 nM
- Ki (human orexin 2 receptor; hOX2 Ki (nm)): > 10000 nM

SMILES: Cc1ccc(-n2nccn2)c(C(=O)N2C3CCC2C(COc2cccnc2C)C3)n1 (racemic) [Example 54, (±)-(6-methyl-3-(2H-1,2,3-triazol-2-yl)pyridin-2-yl)(2-(((2-methylpyridin-3-yl)oxy)methyl)-7-azabicyclo[2.2.1]heptan-7-yl)methanone]
- Ki (rat orexin 1 receptor; rOX1 Ki (nm)): 3500 nM
- Ki (human orexin 2 receptor; [1]): 2200 nM

SMILES: Cc1ccc(-n2nccn2)c(C(=O)N2C3CCC2C(COc2ccnn2C)C3)n1 (racemic) [Example 56, (±)-(2-(((1-methyl-1H-pyrazol-5-yl)oxy)methyl)-7-azabicyclo[2.2.1]heptan-7-yl)(6-methyl-3-(2H-1,2,3-triazol-2-yl)pyridin-2-yl)methanone]
- Ki (rat orexin 1 receptor; [2]): > 10000 nM
- Ki (human orexin 2 receptor; hOX2 Ki (nm)): > 10000 nM

SMILES: Cc1ccc(-n2nccn2)c(C(=O)N2C3CCC2C(COc2ccncc2)C3)n1 (racemic) [Example 57, (±)-(6-methyl-3-(2H-1,2,3-triazol-2-yl)pyridin-2-yl)(2-((pyridin-4-yloxy)methyl)-7-azabicyclo[2.2.1]heptan-7-yl)methanone]
- Ki (rat orexin 1 receptor; [2]): 1000 nM
- Ki (human orexin 2 receptor; [1]): 7300 nM

SMILES: Cc1ccc(-n2nccn2)c(C(=O)N2C3CCC2C(COc2ncccn2)C3)n1 (racemic) [Example 59, (±)-(6-methyl-3-(2H-1,2,3-triazol-2-yl)pyridin-2-yl)(2-((pyrimidin-2-yloxy)methyl)-7-azabicyclo[2.2.1]heptan-7-yl)methanone]
- Ki (rat orexin 1 receptor; [2]): 2600 nM
- Ki (human orexin 2 receptor; hOX2 Ki (nm)): 4900 nM

SMILES: Cc1ccc(-n2nccn2)c(C(=O)N2C3CCC2C(COc2cnccn2)C3)n1 (racemic) [Example 60, (±)-(6-methyl-3-(2H-1,2,3-triazol-2-yl)pyridin-2-yl)(2-((pyrazin-2-yloxy)methyl)-7-azabicyclo[2.2.1]heptan-7-yl)methanone]
- Ki (rat orexin 1 receptor; [2]): 7800 nM
- Ki (human orexin 2 receptor; hOX2 Ki (nm)): > 10000 nM

SMILES: Cc1ccc(-n2nccn2)c(C(=O)N2C3CCC2C(COc2ccncn2)C3)n1 (racemic) [Example 61, (±)-(6-methyl-3-(2H-1,2,3-triazol-2-yl)pyridin-2-yl)(2-((pyrimidin-4-yloxy)methyl)-7-azabicyclo[2.2.1]heptan-7-yl)methanone]
- Ki (rat orexin 1 receptor; rOX1 Ki (nm)): 2800 nM
- Ki (human orexin 2 receptor; hOX2 Ki (nm)): > 10000 nM

SMILES: Cc1ccc(-c2ncccc2C)c(C(=O)N2C3CCC2C(COc2ccc(F)cn2)C3)n1 (racemic) [Example 65, (±)-(3,6′-dimethyl-[2,3′-bipyridin]-2′-yl)(2-(((5-fluoropyridin-2-yl)oxy)methyl)-7-azabicyclo[2.2.1]heptan-7-yl)methanone]
- Ki (rat orexin 1 receptor; rOX1 Ki (nm)): 1440 nM
- Ki (human orexin 2 receptor; [1]): 6200 nM

SMILES: Cc1cnc(C(=O)N2C3CCC2C(COc2ccccn2)C3)c(-n2nccn2)c1 (racemic) [Example 71, (±)-(5-methyl-3-(2H-1,2,3-triazol-2-yl)pyridin-2-yl)(2-((pyridin-2-yloxy)methyl)-7-azabicyclo[2.2.1]heptan-7-yl)methanone]
- Ki (rat orexin 1 receptor; [2]): 1200 nM
- Ki (human orexin 2 receptor; [1]): 3700 nM

SMILES: Cc1ccc(N(C)C)c(C(=O)N2C3CCC2C(COc2ccccn2)C3)n1 (racemic) [Example 73, (±)-(3-(dimethylamino)-6-methylpyridin-2-yl)(2-((pyridin-2-yloxy)methyl)-7-azabicyclo[2.2.1]heptan-7-yl)methanone]
- Ki (rat orexin 1 receptor; [2]): 278 nM
- Ki (human orexin 2 receptor; [1]): 7900 nM

SMILES: O=C(c1nc2ccccc2cc1-n1nccn1)N1C2CCC1C(COc1ccccn1)C2 (racemic) [Example 74, (±)-(3-(2H-1,2,3-triazol-2-yl)quinolin-2-yl)(2-((pyridin-2-yloxy)methyl)-7-azabicyclo[2.2.1]heptan-7-yl)methanone]
- Ki (rat orexin 1 receptor; rOX1 Ki (nm)): 359 nM
- Ki (human orexin 2 receptor; [1]): 1700 nM

SMILES: O=C(c1cccc(F)c1-n1nccn1)N1[C@@H]2CC[C@H]1[C@H](Nc1cnc(C(F)(F)F)cn1)C2 [Example 252, (3-fluoro-2-(2H-1,2,3-triazol-2-yl)phenyl)((1S,2R,4R)-2-((5-(trifluoromethyl)pyrazin-2-yl)amino)-7-azabicyclo[2.2.1]heptan-7-yl)methanone]
- Ki (human orexin 2 receptor; [1]): 1230 nM

SMILES: O=C(c1cc(F)ccc1-n1nccn1)N1[C@@H]2CC[C@H]1[C@H](Nc1cnc(C(F)(F)F)cn1)C2 [Example 256, (5-fluoro-2-(2H-1,2,3-triazol-2-yl)phenyl)((1S,2R,4R)-2-((5-(trifluoromethyl)pyrazin-2-yl)amino)-7-azabicyclo[2.2.1]heptan-7-yl)methanone]
- Ki (human orexin 2 receptor; [1]): 1100 nM

SMILES: O=C(c1cccc(F)c1-c1cnccn1)N1[C@@H]2CC[C@H]1[C@H](Nc1cnc(C(F)(F)F)cn1)C2 [Example 265, (3-fluoro-2-(pyrazin-2-yl)phenyl)-((1S,2R,4R)-2-((5-(trifluoromethyl)pyrazin-2-yl)amino)-7-azabicyclo[2.2.1]heptan-7-yl)methanone]
- Ki (human orexin 2 receptor; [1]): 188 nM

SMILES: Cc1cccc(C(=O)N2[C@@H]3CC[C@H]2[C@H](Nc2cnc(C(F)(F)F)cn2)C3)c1-c1ncccn1 [Example 273, (3-methyl-2-(pyrimidin-2-yl)phenyl)((1S,2R,4R)-2-((5-(trifluoromethyl)pyrazin-2-yl)amino)-7-azabicyclo[2.2.1]heptan-7-yl)methanone]
- Ki (human orexin 2 receptor; [1]): 328 nM

SMILES: Cc1cccc(C(=O)N2[C@@H]3CC[C@H]2[C@H](Nc2ncc(C(F)(F)F)cn2)C3)c1-c1ncccn1 [Example 281, (3-methyl-2-(pyrimidin-2-yl)phenyl)((1S,2R,4R)-2-((5-(trifluoromethyl)pyrimidin-2-yl)amino)-7-azabicyclo[2.2.1]heptan-7-yl)methanone]
- Ki (human orexin 2 receptor; [1]): 1200 nM

SMILES: Cc1cccc(C(=O)N2[C@@H]3CC[C@H]2[C@H](Nc2ncc(C(F)(F)F)cn2)C3)c1-c1ncco1 [Example 283, (3-methyl-2-(oxazol-2-yl)phenyl)((1S,2R,4R)-2-((5-(trifluoromethyl)pyrimidin-2-yl)amino)-7-azabicyclo[2.2.1]heptan-7-yl)methanone]
- Ki (human orexin 2 receptor; [1]): 417 nM

SMILES: COc1cccc(-c2ncccn2)c1C(=O)N1[C@@H]2CC[C@H]1[C@H](Nc1cnc(C(F)(F)F)cn1)C2 [Example 289, (2-methoxy-6-(pyrimidin-2-yl)phenyl)((1S,2R,4R)-2-((5-(trifluoromethyl)pyrazin-2-yl)amino)-7-azabicyclo[2.2.1]heptan-7-yl)methanone]
- Ki (human orexin 2 receptor; [1]): 173 nM

SMILES: O=C(c1c(F)cccc1-c1ncccn1)N1[C@@H]2CC[C@H]1[C@H](Nc1cnc(C(F)(F)F)cn1)C2 [Example 290, (2-fluoro-6-(pyrimidin-2-yl)phenyl)((1S,2R,4R)-2-((5-(trifluoromethyl)pyrazin-2-yl)amino)-7-azabicyclo[2.2.1]heptan-7-yl)methanone]
- Ki (human orexin 2 receptor; [1]): 558 nM

SMILES: CCOc1ccc2cccnc2c1C(=O)N1[C@@H]2CC[C@H]1[C@H](Nc1cnc(C(F)(F)F)cn1)C2 [Example 291, (7-ethoxyquinolin-8-yl)((1S,2R,4R)-2-((5-(trifluoromethyl)pyrazin-2-yl)amino)-7-azabicyclo[2.2.1]heptan-7-yl)methanone]
- Ki (human orexin 2 receptor; [1]): 425 nM

SMILES: Cc1cccc(C(=O)N2[C@@H]3CC[C@H]2[C@H](Nc2ncc(C(F)(F)F)cn2)C3)c1-c1ccccn1 [Example 293, (3-methyl-2-(pyridin-2-yl)phenyl)((1S,2R,4R)-2-((5-(trifluoromethyl)pyrimidin-2-yl)amino)-7-azabicyclo[2.2.1]heptan-7-yl)methanone]
- Ki (human orexin 2 receptor; [1]): 1100 nM

SMILES: O=C(c1cccc(F)c1-n1nccn1)N1[C@@H]2CC[C@H]1[C@H](Nc1ccc(C(F)(F)F)cn1)C2 [Example 294, (3-fluoro-2-(2H-1,2,3-triazol-2-yl)phenyl)((1S,2R,4R)-2-((5-(trifluoromethyl)pyridin-2-yl)amino)-7-azabicyclo[2.2.1]heptan-7-yl)methanone]
- Ki (human orexin 2 receptor; [1]): 1200 nM

SMILES: Cc1cccc(C(=O)N2[C@@H]3CC[C@H]2[C@H](Nc2ccc(C(F)(F)F)cn2)C3)c1-n1nccn1 [Example 295, (3-methyl-2-(2H-1,2,3-triazol-2-yl)phenyl)((1S,2R,4R)-2-((5-(trifluoromethyl)pyridin-2-yl)amino)-7-azabicyclo[2.2.1]heptan-7-yl)methanone]
- Ki (human orexin 2 receptor; [1]): 257 nM

SMILES: Cc1cccc(C(=O)N2[C@@H]3CC[C@H]2[C@H](Nc2ccc(C(F)(F)F)cn2)C3)c1-c1ncco1 [Example 296, (3-methyl-2-(oxazol-2-yl)phenyl)((1S,2R,4R)-2-((5-(trifluoromethyl)pyridin-2-yl)amino)-7-azabicyclo[2.2.1]heptan-7-yl)methanone]
- Ki (human orexin 2 receptor; [1]): 114 nM
